ChEMBL document CHEMBL1201862, “PubChem BioAssay data set” (2004)
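48-hour exposure; five concentrations; linearly interpolated endpoints. The concentration for 50% growth inhibition is given as GI50.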 Active and inactive are the calls of the source. No stated cut-off is given here; in the data, active = GI50 up to about 1.1 µM and inactive = higher.

What was measured:
Assay in all cases: NCI anticancer screen, dose series, 48 h
A498 = test system: A498
EKVX = test system: EKVX
HCT-116 = test system: HCT-116
HL-60 = test system: HL-60
HOP-92 = test system: HOP-92
HT-29 = test system: HT-29
MOLT-4 = test system: MOLT-4
NCI-H226 = test system: NCI-H226
NCI-H522 = test system: NCI-H522
RPMI-8226 = test system: RPMI-8226
RXF 393 = test system: RXF 393
SF-268 = test system: SF-268
SF-539 = test system: SF-539
SK-MEL-28 = test system: SK-MEL-28
SK-OV-3 = test system: SK-OV-3
SN12C = test system: SN12C
SNB-19 = test system: SNB-19
U-251 = test system: U-251
UACC-257 = test system: UACC-257
UO-31 = test system: UO-31

Compound | GI50 (A498) | GI50 (EKVX) | GI50 (HCT-116) | GI50 (HL-60) | GI50 (HOP-92) | GI50 (HT-29) | GI50 (MOLT-4) | GI50 (NCI-H226) | GI50 (NCI-H522) | GI50 (RPMI-8226) | GI50 (RXF 393) | GI50 (SF-268) | GI50 (SF-539) | GI50 (SK-MEL-28) | GI50 (SK-OV-3) | GI50 (SN12C) | GI50 (SNB-19) | GI50 (U-251) | GI50 (UACC-257) | GI50 (UO-31)
CCCCCC(/C=C/[C@@H]1CC(=O)C[C@H]1O[Si](C)(C)C(C)(C)C)OCOCCOC (stereo not given in full) | 11.9 µM (inactive) | 6.31 µM (inactive) | 2.99 µM (inactive) | > 100 µM (inactive) | 1.97 µM (inactive) | 3.48 µM (inactive) | 1.75 µM (inactive) | 5.48 µM (inactive) | 1.93 µM (inactive) | 2.61 µM (inactive) | 2.24 µM (inactive) | 2.98 µM (inactive) | 2.32 µM (inactive) | 3.08 µM (inactive) | 17 µM (inactive) | 8.43 µM (inactive) | 4.52 µM (inactive) | 2.52 µM (inactive) | 3.68 µM (inactive) | 2.42 µM (inactive)
CC[C@@H]1CC[C@@H]2[C@H](CC[C@]3(C)[C@@H](OC(C)=O)CC[C@@H]23)[C@H]1COC(C)=O | 26 µM (inactive) | 31.6 µM (inactive) | 16.5 µM (inactive) | 20.7 µM (inactive) | 29 µM (inactive) | 18.2 µM (inactive) | 16 µM (inactive) | 23.1 µM (inactive) | 23.1 µM (inactive) | 25.6 µM (inactive) | 22.6 µM (inactive) | 21.6 µM (inactive) | 24.4 µM (inactive) | 30.8 µM (inactive) | 35.2 µM (inactive) | 22.9 µM (inactive) | 36.9 µM (inactive) | 19.5 µM (inactive) | 29.5 µM (inactive) | > 100 µM (inactive)
CCOC(=O)C1=C(C(C)=O)CSC(c2ccccc2)=N1 | > 100 µM (inactive) | > 100 µM (inactive) | > 100 µM (inactive) | > 100 µM (inactive) | > 100 µM (inactive) | > 100 µM (inactive) | > 100 µM (inactive) | > 89.7 µM (inactive) | > 100 µM (inactive) | > 100 µM (inactive) | > 100 µM (inactive) | > 100 µM (inactive) | > 100 µM (inactive) | > 100 µM (inactive) | > 100 µM (inactive) | > 100 µM (inactive) | > 100 µM (inactive) | > 100 µM (inactive) | > 100 µM (inactive) | 97.9 µM (inactive)
COc1cccc(-c2nc3c(C(=O)NCCN(C)C)cccc3[nH]2)c1 | 16.3 µM (inactive) | 34.4 µM (inactive) | 7.73 µM (inactive) | 15.7 µM (inactive) | 18.5 µM (inactive) | 11 µM (inactive) | 3.38 µM (inactive) | 14 µM (inactive) | 15.2 µM (inactive) | 13.2 µM (inactive) | 20.7 µM (inactive) | 13.2 µM (inactive) | 17.1 µM (inactive) | 15.8 µM (inactive) | 21.3 µM (inactive) | 17.4 µM (inactive) | 31.3 µM (inactive) | 23.8 µM (inactive) | 16.1 µM (inactive) | 11.2 µM (inactive)
COC(=O)[C@]1(c2ccc(N(C)C)cc2OC)C[C@@H]2CCCN(CCc3c1[nH]c1ccccc31)C2 | 19 µM (inactive) | 22.3 µM (inactive) | 29.9 µM (inactive) | 11.7 µM (inactive) | 10.7 µM (inactive) | 15 µM (inactive) | 31 µM (inactive) | 17.4 µM (inactive) | 17.4 µM (inactive) | 28.1 µM (inactive) | 19.8 µM (inactive) | 21.1 µM (inactive) | 20.5 µM (inactive) | 19.6 µM (inactive) | > 47 µM (inactive) | 19.3 µM (inactive) | 74 µM (inactive) | 19.1 µM (inactive) | 21 µM (inactive) | 15.5 µM (inactive)
CC[C@@]12CCC(=S)N(CCSc3ccccc3)[C@@H]1c1c(n(S(=O)(=O)c3ccc(OC)cc3)c3ccccc13)CC2 | > 100 µM (inactive) | > 100 µM (inactive) | > 100 µM (inactive) | > 100 µM (inactive) | 73.6 µM (inactive) | > 100 µM (inactive) | > 100 µM (inactive) | 68.1 µM (inactive) | > 100 µM (inactive) | > 100 µM (inactive) | 24.1 µM (inactive) | > 100 µM (inactive) | 88.1 µM (inactive) | > 100 µM (inactive) | > 100 µM (inactive) | > 100 µM (inactive) | 32.9 µM (inactive) | > 100 µM (inactive) | > 100 µM (inactive) | > 100 µM (inactive)
Nc1ncnc2c1ncn2C1C=C(CO)C(O)C1O (stereo not given) | 15.9 µM (inactive) | 25.8 µM (inactive) | 0.0509 µM (active) | 0.34 µM (active) | 7.55 µM (inactive) | 2.06 µM (inactive) | 0.249 µM (active) | 22.4 µM (inactive) | 3.99 µM (inactive) | 0.256 µM (active) | 9.59 µM (inactive) | 10.1 µM (inactive) | 4.26 µM (inactive) | 1.23 µM (inactive) | 8.18 µM (inactive) | 7.03 µM (inactive) | 16 µM (inactive) | 10.4 µM (inactive) | 1.35 µM (inactive) | 0.41 µM (active)
